Measurements from US7618956B2, “Reduction of hair growth” (The Gillette Company, priority 2005, dated 2009).

Assays:
[1] = system: Human hair follicles in growth phase (anagen); assay: Human hair follicle growth assay; type: cell-based; details: for Hair follicle length increase (mm) Treated: day 0 to day 7; for % Reduction of human hair follicle growth / Growth of follicle (mm) Treated: Table III
Experimental: Human Hair Follicle Growth Assay:
Human hair follicles in growth phase (anagen) were isolated from face-lift tissue (obtained from plastic surgeons) under dissecting scope using a scalpel and watchmakers forceps. The skin was sliced into thin strips exposing 2-3 rows of follicles that could readily be dissected. Follicles were placed into 0.5 ml William's E medium (Life Technologies, Gaithersburg, Md.) supplemented with 2 mM L-glutamine, 10 μg/ml insulin, 10 ng/ml hydrocortisone, 100 units of penicillin, 0.1 mg/ml streptomycin and 0.25 μg/ml amphotericin B. The follicles were incubated in 24-well plates (1 follicle/well) at 37° C. in an atmosphere of 5% CO2 and 95% air. Compounds are dissolved into dimethyl sulfoxide as 100-fold stock solution. The control hair follicles were treated with dimethyl sulfoxide without prostaglandin. The follicles were photographed in the 24-well plates under the dissecting scope at a power of 10×. Typically, image recordings were made on day 0 (day follicles were placed in culture), and again on day 7. The length of hair follicle was assessed using an image analysis software system. The growth of hair fiber was calculated by the subtracting the follicle length on day 0 from that determined on day 7.

[2] = system: hamster hair mass; assay: Hamster hair mass assay; type: in vivo; details: vehicle 90% ethanol and 10% propylene glycol
Experimental: Hamster Hair Mass Assay: Hamster hair mass was determined using a method similar to that described in previous patent (US2004/0198821).

[3] = Homo sapiens, Table II, dose 100 μM, vs control

SMILES | inhibition at 100 µM [1, 3] | Hair follicle length increase (mm) Treated ([1]; Table II, dose 100 μM) | % Reduction of human hair follicle growth ([1]; dose 50 μM) | Growth of follicle (mm) Treated ([1]; dose 50 μM) | % Inhibition of hamster hair mass ([2]; dose 5% (w/v)) | Hair mass (mg) Treated ([2]; dose 5% (w/v)) | % Reduction of human hair follicle growth ([1]; dose 10 μM) | Growth of follicle (mm) Treated ([1]; dose 10 μM) | % Reduction of human hair follicle growth ([1]; dose 100 μM) | Growth of follicle (mm) Treated ([1]; dose 100 μM) | further results
C[C@H](CCC(=O)O)[C@H]1CC[C@H]2[C@@H]3[C@H](O)C[C@@H]4C[C@H](O)CC[C@]4(C)[C@H]3CC[C@]12C [Chenodeoxycholic acid] | 95.3 ± 5.6% | 0.05 ± 0.06 mm | 91.6 ± 6.5% | 0.13 ± 0.10 mm | 76.4 ± 2.6% | 0.54 ± 0.08 mg |  |  |  |  | % Reduction of human hair follicle growth ([1]; dose 5 μM): 1.3 ± 18.7%; Growth of follicle (mm) Treated ([1]; dose 5 μM): 1.53 ± 0.29 mm; % Reduction of human hair follicle growth ([1]; dose 25 μM): 49.0 ± 17.4%; Growth of follicle (mm) Treated ([1]; dose 25 μM): 0.79 ± 0.27 mm
C[C@H](CCC(=O)O)[C@H]1CC[C@H]2[C@@H]3CC[C@@H]4C[C@H](O)CC[C@]4(C)[C@H]3CC[C@]12C [Lithocholic acid] |  |  |  |  |  |  | 64.5 ± 12.9% | 0.44 ± 0.16 mm |  |  | inhibition at 50 µM ([1]; Homo sapiens, Table II, dose 50 μM, vs control): 98.1 ± 1.9%; Hair follicle length increase (mm) Treated ([1]; Table II, dose 50 μM): 0.02 ± 0.02 mm; % Reduction of human hair follicle growth ([1]; dose 2 μM): 33.9 ± 11.3%; Growth of follicle (mm) Treated ([1]; dose 2 μM): 0.82 ± 0.14 mm; % Reduction of human hair follicle growth ([1]; dose 20 μM): 97.6 ± 4.8%; Growth of follicle (mm) Treated ([1]; dose 20 μM): 0.03 ± 0.06 mm; % Inhibition of hamster hair mass ([2]; dose 4% (w/v)): 46.4 ± 6.0%; Hair mass (mg) Treated ([2]; dose 4% (w/v)): 1.01 ± 0.12 mg
C[C@H](CCC(=O)O)[C@H]1CC[C@H]2[C@@H]3CC[C@@H]4C[C@H](O)CC[C@]4(C)[C@H]3C[C@H](O)[C@]12C [Deoxycholic acid] | 94.3 ± 4.7% | 0.06 ± 0.05 mm | 69.3 ± 13.6% | 0.54 ± 0.34 mm | 63.6 ± 6.0% | 0.92 ± 0.14 mg | 31.8 ± 18.1% | 1.20 ± 0.49 mm | 69.3 ± 13.6% | 0.54 ± 0.34 mm | 
C[C@H](CCC(=O)O)[C@H]1CC[C@H]2[C@@H]3[C@@H](O)C[C@@H]4C[C@H](O)CC[C@]4(C)[C@H]3CC[C@]12C [Ursodeoxycholic acid] |  |  | 36.3 ± 13.6% | 1.12 ± 0.24 mm | 56.8 ± 3.8% | 1.02 ± 0.16 mg |  |  | 51.1 ± 11.4% | 0.86 ± 0.20 mm | inhibition at 200 µM ([1]; Homo sapiens, Table II, dose 200 μM, vs control): 81.3 ± 10.3%; Hair follicle length increase (mm) Treated ([1]; Table II, dose 200 μM): 0.20 ± 0.11 mm; % Reduction of human hair follicle growth ([1]; dose 150 μM): 65.3 ± 11.4%; Growth of follicle (mm) Treated ([1]; dose 150 μM): 0.61 ± 0.20 mm
COC(=O)C=C(C)CCC=C(C)CCC1OC1(C)C (centres unmarked) [Juvenile hormone III, 7-Methyl-9-(3,3-dimethyloxivanyl)-3-methyl-2,6-nonadienoic acid methyl ester] |  | 0.21 ± 0.15 mm |  |  |  |  |  |  |  |  | % Inhibition of human hair follicle growth ([1]; Table II, dose 100 μM, vs control): 75.9 ± 17.2%
CC(C)=CCCC(C)=CCCC(C)=CCO [Farnesol] | 95.4 ± 8% | 0.04 ± 0.07 mm |  |  |  |  |  |  |  |  | 
